A word on the IC50: it is the concentration that gives 50% inhibition.

In the assay the target is T1, Cav3.2 T-type calcium channel (Homo sapiens, UniProt O95180).
T1 construct: gene CACNA1H
Kind of assay: whole-cell patch clamp, tsA-201 cells transiently expressing Cav3.[…]; partial block (plateau about […]). The format is cell-based. (Patch clamp records ionic current or voltage across a cell membrane.)

T1 sequence (O95180 whole entry): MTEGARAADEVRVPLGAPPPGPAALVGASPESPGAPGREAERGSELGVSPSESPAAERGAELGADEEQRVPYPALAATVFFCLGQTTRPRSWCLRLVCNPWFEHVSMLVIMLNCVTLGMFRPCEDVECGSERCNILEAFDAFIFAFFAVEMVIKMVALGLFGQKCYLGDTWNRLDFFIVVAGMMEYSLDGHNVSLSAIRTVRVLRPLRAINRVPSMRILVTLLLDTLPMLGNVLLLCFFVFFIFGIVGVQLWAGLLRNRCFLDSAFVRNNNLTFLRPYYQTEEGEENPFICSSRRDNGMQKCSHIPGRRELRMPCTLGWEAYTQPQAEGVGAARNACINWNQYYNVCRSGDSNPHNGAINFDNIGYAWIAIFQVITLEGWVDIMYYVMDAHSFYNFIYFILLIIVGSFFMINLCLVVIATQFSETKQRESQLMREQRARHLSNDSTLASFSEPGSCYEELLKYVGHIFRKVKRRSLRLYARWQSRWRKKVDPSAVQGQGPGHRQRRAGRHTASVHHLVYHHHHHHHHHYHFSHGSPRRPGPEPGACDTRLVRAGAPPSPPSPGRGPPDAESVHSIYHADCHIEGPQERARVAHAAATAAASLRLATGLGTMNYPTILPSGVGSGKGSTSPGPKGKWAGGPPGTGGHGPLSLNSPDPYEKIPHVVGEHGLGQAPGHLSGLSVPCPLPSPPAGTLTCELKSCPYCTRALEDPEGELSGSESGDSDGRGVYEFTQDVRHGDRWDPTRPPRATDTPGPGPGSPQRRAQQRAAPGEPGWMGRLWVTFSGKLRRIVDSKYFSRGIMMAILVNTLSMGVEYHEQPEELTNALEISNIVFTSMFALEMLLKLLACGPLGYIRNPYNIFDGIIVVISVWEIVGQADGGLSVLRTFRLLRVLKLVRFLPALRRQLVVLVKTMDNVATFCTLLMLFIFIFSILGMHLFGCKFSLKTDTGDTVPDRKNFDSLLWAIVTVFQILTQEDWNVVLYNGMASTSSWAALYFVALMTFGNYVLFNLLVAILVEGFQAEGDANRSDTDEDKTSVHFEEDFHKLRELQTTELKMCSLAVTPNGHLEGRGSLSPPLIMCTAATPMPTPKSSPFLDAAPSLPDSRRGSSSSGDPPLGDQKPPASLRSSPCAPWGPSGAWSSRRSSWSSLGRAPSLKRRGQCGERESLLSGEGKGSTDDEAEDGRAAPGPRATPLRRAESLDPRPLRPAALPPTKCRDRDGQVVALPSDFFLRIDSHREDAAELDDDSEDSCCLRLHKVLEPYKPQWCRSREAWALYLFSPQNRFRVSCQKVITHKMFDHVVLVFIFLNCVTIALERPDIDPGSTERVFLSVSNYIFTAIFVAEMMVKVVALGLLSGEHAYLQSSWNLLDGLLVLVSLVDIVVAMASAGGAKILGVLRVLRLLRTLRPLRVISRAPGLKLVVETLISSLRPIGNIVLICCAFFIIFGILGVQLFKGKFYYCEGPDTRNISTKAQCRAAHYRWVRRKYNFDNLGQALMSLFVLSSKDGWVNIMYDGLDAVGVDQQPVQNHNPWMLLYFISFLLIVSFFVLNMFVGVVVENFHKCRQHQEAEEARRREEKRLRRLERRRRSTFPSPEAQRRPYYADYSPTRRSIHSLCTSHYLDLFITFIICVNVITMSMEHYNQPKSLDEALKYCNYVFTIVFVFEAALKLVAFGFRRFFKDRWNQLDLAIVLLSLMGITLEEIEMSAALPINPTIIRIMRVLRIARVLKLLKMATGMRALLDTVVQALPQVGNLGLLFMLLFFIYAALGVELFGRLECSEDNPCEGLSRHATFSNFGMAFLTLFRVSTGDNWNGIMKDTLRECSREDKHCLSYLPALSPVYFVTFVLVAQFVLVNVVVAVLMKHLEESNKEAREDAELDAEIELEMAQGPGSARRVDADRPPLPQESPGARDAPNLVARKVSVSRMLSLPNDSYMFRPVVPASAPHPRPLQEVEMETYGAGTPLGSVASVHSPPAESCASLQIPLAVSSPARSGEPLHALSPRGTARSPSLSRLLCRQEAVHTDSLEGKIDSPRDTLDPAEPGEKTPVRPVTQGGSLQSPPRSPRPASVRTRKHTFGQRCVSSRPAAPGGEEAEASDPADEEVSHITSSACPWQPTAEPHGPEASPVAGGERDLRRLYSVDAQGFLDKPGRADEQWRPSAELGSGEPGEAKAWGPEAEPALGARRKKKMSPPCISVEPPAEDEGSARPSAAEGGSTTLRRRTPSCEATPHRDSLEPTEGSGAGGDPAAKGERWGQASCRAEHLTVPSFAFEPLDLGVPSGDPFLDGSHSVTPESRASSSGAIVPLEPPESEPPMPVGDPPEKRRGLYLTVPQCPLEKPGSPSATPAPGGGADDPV

For `CC(C)=CCC[C@](C)(O)[C@@H]1CC=C(C)CC1` [alpha-bisabolol], the IC50 was 4.5 ± 1.1 µM.

Consider `C=C1C2CCC(C2)C1(C)C` (centres unmarked) [camphene], for which the IC50 was found to be 7.7 ± 1.8 µM.

Source of the values: article PMC8591808 (Molecular Brain, 2021).
